This is an account of results in PubChem BioAssay (NCI).

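In this assay, cells in 96-well plates receive the compound at five concentrations for 48 hours. Endpoints are linearly interpolated between the surrounding concentrations. GI50 = concentration required for 50% inhibition of growth. At the TGI there is no net growth.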

Among the test systems are OVCAR-3 ovarian; NCI-H460 lung; TK-10 renal; RXF 393 renal; SK-OV-3 ovarian; HT29 colon; SK-MEL-2 melanoma; OVCAR-8 ovarian; HOP-62 NSCLC; OVCAR-4 ovarian.
What all share (experiment): growth of human tumour cells (NCI), 48 h

Consider `CC12OC(C(=O)C13CCC3)C1C(=O)c3ccc4c(ccc5ccccc54)c3C(=O)C12` (stereo not drawn), for which the GI50 in the test with OVCAR-3 ovarian was 388 nM; in the test on NCI-H460 lung it was 12 µM; in the test with TK-10 renal, 4.29 µM; with RXF 393 renal it was 13300 nM; in the test with SK-OV-3 ovarian it was 26.5 µM; in the test on HT29 colon it was 3850 nM. Also, the GI50 in the test with SK-MEL-2 melanoma was 19.4 µM; in the test with OVCAR-8 ovarian it was 6.49 µM; in the test with HOP-62 NSCLC, 25.2 µM. Further, the TGI in the test on OVCAR-3 ovarian was 2.47 µM; in the test on NCI-H460 lung, 35.9 µM; in the test on TK-10 renal it was 15 µM; in the test with RXF 393 renal it was 30.3 µM; in the test on SK-OV-3 ovarian, 80.5 µM; in the test on HT29 colon, 19.2 µM. In addition, the TGI with SK-MEL-2 melanoma was over 100 µM; in the test on OVCAR-8 ovarian, over 100 µM; with HOP-62 NSCLC it was 53.4 µM.
Turning to `Cc1ccccc1N=Nc1c(-c2ccccc2)nn(C(=O)CC(=O)Nc2cccc(Cl)c2)c1-c1ccccc1`, the TGI is over 31.6 µM with OVCAR-3 ovarian; over 31.6 µM in the test with NCI-H460 lung; over 31.6 µM in the test with OVCAR-4 ovarian; 28.4 µM in the test with RXF 393 renal; over 31.6 µM in the test on SK-OV-3 ovarian; 23.4 µM in the test on HT29 colon. For the same compound, the TGI in the test with SK-MEL-2 melanoma was 26 µM; in the test with OVCAR-8 ovarian it was over 31.6 µM; with HOP-62 NSCLC, over 31.6 µM.
Turning to `O=C(Oc1ccccc1)C(Br)C(Br)c1ccccc1` (stereo not drawn), the GI50 was 1720 nM in the test with OVCAR-3 ovarian; 14.5 µM in the test on NCI-H460 lung; 2250 nM with OVCAR-4 ovarian; 2.19 µM in the test on TK-10 renal; 1740 nM in the test on RXF 393 renal; 15.9 µM in the test with SK-OV-3 ovarian. Further, the GI50 with SK-MEL-2 melanoma is 16.1 µM; in the test with OVCAR-8 ovarian, 6.11 µM; in the test with HOP-62 NSCLC, 14.5 µM. Also, the TGI in the test with OVCAR-3 ovarian stood at 3.14 µM; in the test on NCI-H460 lung, 29.8 µM; in the test with OVCAR-4 ovarian, 5.04 µM; in the test on TK-10 renal, 4.95 µM; in the test on RXF 393 renal, 3.23 µM; with SK-OV-3 ovarian it was 29.3 µM. Also, the figures for the TGI with SK-MEL-2 melanoma, with OVCAR-8 ovarian and in the test on HOP-62 NSCLC were 33.1 µM, 21.8 µM and 28.3 µM, respectively.
On to `Cc1cn2c(/C=N/N=C(N)N)c(-c3ccncc3)nc2s1`, for which the GI50 in the test on OVCAR-3 ovarian was 17500 nM; in the test with NCI-H460 lung, 16.8 µM; with OVCAR-4 ovarian, 13200 nM; with TK-10 renal, 15 µM; with RXF 393 renal, 14900 nM; in the test with HT29 colon, 20100 nM. For the same compound, the GI50 in the test with SK-MEL-2 melanoma was 28.3 µM; in the test on OVCAR-8 ovarian it was 14.7 µM; with HOP-62 NSCLC, 14.9 µM. Besides, the TGI in the test with OVCAR-3 ovarian is 33.6 µM; with NCI-H460 lung, 30.4 µM; with OVCAR-4 ovarian it was 32 µM; with TK-10 renal, 28.6 µM; with RXF 393 renal, 29.8 µM; with HT29 colon, 46.8 µM. Besides, the TGI with SK-MEL-2 melanoma was over 100 µM; in the test on OVCAR-8 ovarian it was 30.9 µM; in the test with HOP-62 NSCLC it was 28.1 µM.
For the compound `COc1cc2c(c(OC)c1OC)-c1ccc(SC)c(=O)cc1C(CC(=O)Oc1cccc(F)c1)C2` (stereo not drawn), the TGI with OVCAR-3 ovarian was 0.305 µM; with NCI-H460 lung, 4.62 µM; in the test on OVCAR-4 ovarian, over 100 µM; in the test with TK-10 renal it was over 100 µM; in the test on RXF 393 renal, over 100 µM; in the test with SK-OV-3 ovarian it was 16.1 µM. For the same compound, the TGI is 0.557 µM with HT29 colon, 9.57 µM in the test on SK-MEL-2 melanoma and over 100 µM in the test with HOP-62 NSCLC.
Take `CN(C)CCCCCNc1c2ccccc2nc2cccc([N+](=O)[O-])c12`: the TGI with OVCAR-3 ovarian was 0.00504 µM; in the test on OVCAR-4 ovarian, 0.00236 µM; with TK-10 renal it was 0.0207 µM; in the test with RXF 393 renal, 0.0032 µM; with SK-OV-3 ovarian, over 0.0245 µM; in the test with HT29 colon it was 0.00839 µM. Also, the TGI in the test on SK-MEL-2 melanoma is 0.00257 µM; in the test on HOP-62 NSCLC, 0.00716 µM. In addition, the GI50 is 0.00145 µM with NCI-H460 lung, 3.39 nM in the test on OVCAR-4 ovarian, 1.39 nM in the test on RXF 393 renal and 5.02 nM in the test with HT29 colon.
Consider `CC(=O)O[C@H](C[C@H](C(C)C)N(C)C(=O)[C@@H](NC(=O)[C@H]1CCCCN1C)C(C)C)c1cccc(C(=O)N[C@@H](Cc2ccccc2)C[C@H](C)C(=O)O)n1`, for which the GI50 was 7.07 nM with OVCAR-3 ovarian; 0.0297 µM in the test on NCI-H460 lung; 107 nM in the test with OVCAR-4 ovarian; 22.5 nM in the test on RXF 393 renal; 0.0312 µM with SK-OV-3 ovarian; 24.2 nM in the test with HT29 colon. In addition, the results for the GI50 with SK-MEL-2 melanoma, with OVCAR-8 ovarian and in the test on HOP-62 NSCLC were 0.0159 µM, 0.0475 µM and 0.0648 µM, respectively. Also, the TGI in the test with NCI-H460 lung was over 13.4 µM; with OVCAR-4 ovarian, over 25 µM; with RXF 393 renal, over 25 µM; with SK-OV-3 ovarian, over 25 µM; with HT29 colon it was over 8.21 µM; in the test with SK-MEL-2 melanoma, over 25 µM. Further, the TGI in the test on OVCAR-8 ovarian and in the test with HOP-62 NSCLC was over 25 µM each time.
For the compound `CC(=O)NC1=C(N)C(=O)c2ccccc2C1=O`, the TGI was 61.9 µM in the test on OVCAR-3 ovarian; 40.6 µM in the test with NCI-H460 lung; over 100 µM in the test on TK-10 renal; over 100 µM in the test on RXF 393 renal; over 100 µM in the test with SK-OV-3 ovarian; over 100 µM with HT29 colon. The TGI in the test on SK-MEL-2 melanoma, with OVCAR-8 ovarian and in the test on HOP-62 NSCLC was over 100 µM in each case.
`COc1cc(CN(c2ccc(C)cc2)C2OC(=O)c3ccccc32)cc(OC)c1OC` (stereo not drawn): the GI50 was 328 nM in the test with OVCAR-3 ovarian; 0.453 µM in the test with NCI-H460 lung; 2930 nM with OVCAR-4 ovarian; 2.51 µM in the test with TK-10 renal; 141 nM in the test on RXF 393 renal; 0.472 µM with SK-OV-3 ovarian. The values for the GI50 with HT29 colon, in the test on SK-MEL-2 melanoma and with HOP-62 NSCLC were 355 nM, 0.487 µM and 0.627 µM, respectively. Moreover, the TGI with OVCAR-3 ovarian was 13.7 µM; in the test with NCI-H460 lung, over 100 µM; with OVCAR-4 ovarian, over 100 µM; with TK-10 renal it was over 100 µM; in the test on RXF 393 renal, 0.52 µM; with SK-OV-3 ovarian, over 57.9 µM. For the same compound, the TGI with HT29 colon is over 100 µM; in the test on SK-MEL-2 melanoma it was over 100 µM; with HOP-62 NSCLC, over 67.4 µM.
